The record followed here is PubChem BioAssay (NCI).

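Tested at 5 concentrations; 48 h exposure; 96-well plates; endpoints linearly interpolated, else capped at highest concentration. GI50 marks 50% less growth. TGI is the concentration that stops growth completely.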

Among the test systems are CAKI-1 renal; NCI/ADR-RES ovarian; BT-549 breast; SK-MEL-2 melanoma; M14 melanoma; SNB-75 CNS; OVCAR-3 ovarian; U251 CNS.
What all share (assay): NCI anticancer screen, dose series, 48 h

On to `O=[N+]([O-])c1ccc(N/N=C/c2ccccc2O)nc1`, for which the GI50 was 0.738 µM with CAKI-1 renal; 0.373 µM in the experiment with NCI/ADR-RES ovarian; 6.08 µM in the experiment with BT-549 breast; 3 µM in the experiment with SK-MEL-2 melanoma; 1.66 µM with M14 melanoma; 10.6 µM in the experiment on SNB-75 CNS. In addition, the values for the GI50 in the experiment on OVCAR-3 ovarian and in the experiment on U251 CNS were 0.368 µM and 1.69 µM, respectively. In addition, the TGI in the experiment on CAKI-1 renal was 8.37 µM; with NCI/ADR-RES ovarian it was greater than 100 µM; in the experiment on BT-549 breast, greater than 100 µM; with SK-MEL-2 melanoma, greater than 100 µM; with M14 melanoma it was greater than 100 µM; in the experiment on SNB-75 CNS, greater than 100 µM. Also, the TGI in the experiment on OVCAR-3 ovarian and in the experiment with U251 CNS was greater than 100 µM in each case.
Consider `O=C1NC(=O)C(N2CCc3ccccc32)=C1c1ccc(Cl)cc1`, for which the GI50 with CAKI-1 renal is greater than 25 µM; with NCI/ADR-RES ovarian, greater than 25 µM; in the experiment on BT-549 breast, greater than 15.5 µM; in the experiment on SK-MEL-2 melanoma, greater than 25 µM; in the experiment with M14 melanoma, greater than 25 µM; with SNB-75 CNS, greater than 25 µM. Also, the GI50 with OVCAR-3 ovarian and in the experiment on U251 CNS was greater than 25 µM each time. The TGI in the experiment with CAKI-1 renal, with NCI/ADR-RES ovarian, in the experiment with BT-549 breast, in the experiment with SK-MEL-2 melanoma, with M14 melanoma and in the experiment with SNB-75 CNS was greater than 25 µM throughout. Also, the TGI with OVCAR-3 ovarian and in the experiment with U251 CNS was greater than 25 µM each time.
As to `O=C(O)CN(CC(=O)O)c1ccccc1`, the TGI in the experiment on CAKI-1 renal, with NCI/ADR-RES ovarian, with BT-549 breast, with SK-MEL-2 melanoma, in the experiment on M14 melanoma and with SNB-75 CNS was greater than 100 µM each time. In addition, the TGI in the experiment with OVCAR-3 ovarian and in the experiment on U251 CNS was greater than 100 µM each time.
For the compound `O=C(O)c1ccccc1-c1ccccc1C(=O)Nc1ccc2c(c1)Cc1ccccc1-2`, the TGI was greater than 100 µM in the experiment on CAKI-1 renal; greater than 100 µM in the experiment on NCI/ADR-RES ovarian; 69.4 µM with BT-549 breast; 50.7 µM in the experiment on SK-MEL-2 melanoma; 41.6 µM in the experiment with M14 melanoma; greater than 100 µM in the experiment with SNB-75 CNS. For the same compound, the results for the TGI in the experiment with OVCAR-3 ovarian and with U251 CNS were 69.9 µM and greater than 100 µM, respectively.
For the compound `Cc1ccc(-n2nnc3c(sc4ccccc43)c2=O)cc1`, the GI50 in the experiment on CAKI-1 renal is 3.8 µM; with NCI/ADR-RES ovarian, 9.35 µM; in the experiment with BT-549 breast it was greater than 100 µM; in the experiment on SK-MEL-2 melanoma, 99 µM; with M14 melanoma, greater than 100 µM; with SNB-75 CNS it was 3.08 µM. In addition, the GI50 is 17 µM in the experiment with OVCAR-3 ovarian and 3.38 µM in the experiment with U251 CNS. The TGI was greater than 100 µM with CAKI-1 renal; greater than 100 µM in the experiment with NCI/ADR-RES ovarian; greater than 100 µM with BT-549 breast; greater than 100 µM in the experiment with SK-MEL-2 melanoma; greater than 100 µM in the experiment on M14 melanoma; 16.3 µM with SNB-75 CNS. The TGI in the experiment on OVCAR-3 ovarian is greater than 100 µM; in the experiment with U251 CNS it was 19 µM.
On to `CCOC(=O)c1c(C(F)(F)F)n([O-])c2ccc(Cl)cc2[n+]1=O`, for which the GI50 in the experiment with CAKI-1 renal is 1.35 µM; with NCI/ADR-RES ovarian it was 2.8 µM; with BT-549 breast it was 2.02 µM; with SK-MEL-2 melanoma, 1.94 µM; in the experiment with M14 melanoma, 2.02 µM; in the experiment with SNB-75 CNS, 1.43 µM. For the same compound, the GI50 was 2.11 µM with OVCAR-3 ovarian and 1.75 µM in the experiment on U251 CNS. Moreover, the TGI with CAKI-1 renal was 2.87 µM; with NCI/ADR-RES ovarian it was 6 µM; in the experiment with BT-549 breast, 4.95 µM; in the experiment with SK-MEL-2 melanoma, 4.34 µM; with M14 melanoma, 4.48 µM; with SNB-75 CNS it was 5.36 µM. The TGI in the experiment on OVCAR-3 ovarian was found to be 3.93 µM; with U251 CNS, 3.36 µM.
Consider `Cc1ccc(-c2c3c(N)nc(-c4ccncc4)nc3nc3c2c(C)nn3-c2ccccc2)cc1`, for which the GI50 in the experiment on CAKI-1 renal was greater than 37.5 µM; with NCI/ADR-RES ovarian, 7.5 µM; with BT-549 breast it was 7.38 µM; with SK-MEL-2 melanoma, 13.7 µM; in the experiment with M14 melanoma, 13.8 µM; with SNB-75 CNS, 1.64 µM. For the same compound, the figures for the GI50 in the experiment on OVCAR-3 ovarian and in the experiment on U251 CNS were 7.65 µM and 6.12 µM, respectively. Moreover, the TGI is greater than 37.5 µM in the experiment on CAKI-1 renal; greater than 37.5 µM with NCI/ADR-RES ovarian; 17.9 µM with BT-549 breast; greater than 37.5 µM with SK-MEL-2 melanoma; greater than 37.5 µM in the experiment with M14 melanoma; 15.2 µM in the experiment with SNB-75 CNS. Moreover, the TGI with OVCAR-3 ovarian was 20.1 µM; with U251 CNS, 31.7 µM.
For the compound `N#Cc1ccc(N2Cc3cc(Cl)ccc3OC3=C2C(=O)N(Cc2ccc(F)cc2)C3=O)cc1`, the GI50 in the experiment on CAKI-1 renal was 0.186 µM; in the experiment with NCI/ADR-RES ovarian it was 0.85 µM; in the experiment with BT-549 breast, 0.174 µM; in the experiment with SK-MEL-2 melanoma, 0.314 µM; with M14 melanoma, 2.81 µM; in the experiment on SNB-75 CNS it was 0.558 µM. The GI50 with OVCAR-3 ovarian is 0.494 µM; in the experiment on U251 CNS, 0.672 µM. The TGI in the experiment with CAKI-1 renal came to 0.38 µM; with NCI/ADR-RES ovarian, 8.58 µM; with BT-549 breast it was 0.356 µM; in the experiment on SK-MEL-2 melanoma, 0.867 µM; in the experiment on M14 melanoma, 9.33 µM; with SNB-75 CNS, 1.72 µM. The values for the TGI in the experiment with OVCAR-3 ovarian and in the experiment on U251 CNS were 0.96 µM and 1.68 µM, respectively.
Take `CCc1ccc(Oc2nccc(-c3c(-c4ccc(F)cc4)ncn3C3CCNCC3)n2)cc1`: the GI50 in the experiment with CAKI-1 renal is 5.5 µM; in the experiment on NCI/ADR-RES ovarian, 4.69 µM; in the experiment on BT-549 breast, 5.55 µM; in the experiment on SK-MEL-2 melanoma it was 5.24 µM; in the experiment with M14 melanoma, 5.46 µM; in the experiment on SNB-75 CNS it was 3.58 µM. For the same compound, the GI50 in the experiment with OVCAR-3 ovarian is 10.5 µM; in the experiment on U251 CNS, 4.06 µM. Also, the TGI with CAKI-1 renal came out at 14.6 µM; in the experiment on NCI/ADR-RES ovarian, 12.9 µM; with BT-549 breast it was 13.1 µM; in the experiment on SK-MEL-2 melanoma, 9.48 µM; in the experiment on M14 melanoma, 10.8 µM; in the experiment with SNB-75 CNS, 10.7 µM. The TGI in the experiment on OVCAR-3 ovarian came to 14.5 µM; in the experiment with U251 CNS, 9.16 µM.
For the compound `COc1ccc(Oc2nc(Nc3ccc(N4CCOCC4)cc3)ncc2NC(=O)Nc2cc(OC)cc(OC)c2)cc1`, the GI50 with CAKI-1 renal was 4.24 µM; with NCI/ADR-RES ovarian it was greater than 33.3 µM; in the experiment with BT-549 breast, 1.59 µM; in the experiment on SK-MEL-2 melanoma, 4.11 µM; in the experiment with M14 melanoma, 3.02 µM; in the experiment with SNB-75 CNS, 1.65 µM. Moreover, the GI50 in the experiment on OVCAR-3 ovarian was 1.41 µM; with U251 CNS, 1.38 µM. The TGI in the experiment with CAKI-1 renal was 13.5 µM; with NCI/ADR-RES ovarian, greater than 33.3 µM; in the experiment with BT-549 breast, 7.98 µM; in the experiment with SK-MEL-2 melanoma, 15.9 µM; with M14 melanoma, 14.1 µM; in the experiment with SNB-75 CNS, 18.2 µM. For the same compound, the TGI in the experiment on OVCAR-3 ovarian came out at 5.46 µM; with U251 CNS it was 5.88 µM.
For `COC(=O)c1c2c(c(C)[n+]([O-])c1C)C(=O)C=C(NCc1ccc(Br)cc1)C2=O`, the GI50 was 0.0597 µM with CAKI-1 renal; 0.332 µM in the experiment with NCI/ADR-RES ovarian; 1.15 µM with BT-549 breast; 1.55 µM in the experiment on SK-MEL-2 melanoma; 0.0442 µM in the experiment on M14 melanoma; 1.58 µM in the experiment with SNB-75 CNS. For the same compound, the GI50 in the experiment on OVCAR-3 ovarian is 0.252 µM; with U251 CNS it was 0.778 µM. Also, the TGI was 1.64 µM in the experiment on CAKI-1 renal; 3.31 µM with NCI/ADR-RES ovarian; 2.53 µM in the experiment on BT-549 breast; 4.13 µM in the experiment with SK-MEL-2 melanoma; 1.04 µM in the experiment on M14 melanoma; 2.94 µM in the experiment with SNB-75 CNS. Moreover, the figures for the TGI in the experiment on OVCAR-3 ovarian and in the experiment on U251 CNS were 0.845 µM and 2.46 µM, respectively.
Regarding `Cc1ccc2nc3sc(=O)sc3nc2c1`, the TGI in the experiment with CAKI-1 renal was determined as 30 µM; in the experiment with NCI/ADR-RES ovarian, 30.9 µM; with BT-549 breast, 28.7 µM; in the experiment on SK-MEL-2 melanoma, 29 µM; in the experiment with M14 melanoma, 33.5 µM; in the experiment with SNB-75 CNS, 64.8 µM. For the same compound, the values for the TGI with OVCAR-3 ovarian and in the experiment on U251 CNS were 27.7 µM and 30.8 µM, respectively.
Regarding `COc1ccc(C2=NNC(c3cc(Cc4ccc(O)c(C5CC(c6ccc(OC)cc6)=NN5)c4)ccc3O)C2)cc1` (stereo not drawn), the GI50 is 30.2 µM in the experiment with CAKI-1 renal; 7.39 µM with NCI/ADR-RES ovarian; 4.66 µM in the experiment on BT-549 breast; 5.9 µM in the experiment with SK-MEL-2 melanoma; 10.4 µM in the experiment with M14 melanoma; 4.98 µM in the experiment on SNB-75 CNS. The GI50 is 18.8 µM in the experiment with OVCAR-3 ovarian and 5.84 µM in the experiment with U251 CNS. Moreover, the TGI with CAKI-1 renal was greater than 100 µM; with NCI/ADR-RES ovarian it was greater than 100 µM; in the experiment with BT-549 breast, 51.6 µM; in the experiment with SK-MEL-2 melanoma, 29 µM; in the experiment on M14 melanoma, 38.3 µM; in the experiment on SNB-75 CNS, greater than 100 µM. Also, the TGI in the experiment on OVCAR-3 ovarian and in the experiment with U251 CNS was greater than 100 µM throughout.
For `Cc1cc2oc(=O)c(Cl)c(Cl)c2c(C)c1Cl`, the TGI turned out to be 15.7 µM with CAKI-1 renal; 38.4 µM with NCI/ADR-RES ovarian; 39 µM with BT-549 breast; 26 µM in the experiment with SK-MEL-2 melanoma; 22.4 µM with M14 melanoma; 25.2 µM in the experiment with SNB-75 CNS. Further, the TGI in the experiment with OVCAR-3 ovarian stood at 7.1 µM; in the experiment on U251 CNS, 8.45 µM.
On to `CC(=O)Nc1cc(C(c2ccccc2)c2ccccc2)cc(C(c2ccccc2)c2ccccc2)c1C`, for which the GI50 in the experiment with CAKI-1 renal is greater than 100 µM; in the experiment with NCI/ADR-RES ovarian, 6.01 µM; in the experiment with BT-549 breast, 8.2 µM; in the experiment with SK-MEL-2 melanoma, 5.18 µM; with M14 melanoma, greater than 100 µM; with SNB-75 CNS it was 21.4 µM. Further, the GI50 was 7.33 µM in the experiment with OVCAR-3 ovarian and 7.63 µM in the experiment on U251 CNS. Further, the TGI in the experiment on CAKI-1 renal, with NCI/ADR-RES ovarian, in the experiment with BT-549 breast, in the experiment on SK-MEL-2 melanoma, in the experiment on M14 melanoma and in the experiment with SNB-75 CNS was greater than 100 µM throughout. Also, the TGI with OVCAR-3 ovarian and in the experiment with U251 CNS was greater than 100 µM in each case.
